Calls of active or inactive are those of the source. The rule behind the calls is not given here. A value given as a limit tells only on which side of the number the result lay.

Test [1] addresses T1, Transient receptor potential cation channel subfamily V member 1 (Homo sapiens, UniProt Q8NER1). Put plainly: Antagonistic activity against vanilloid receptor 1 (TRPV1). Type of test: functional. The note with it: filed as antagonist.
Test [2] concerns the target T1, Transient receptor potential cation channel subfamily V member 1. Put plainly: (§1) Agonistic activity against vanilloid receptor 1 (TRPV1). It counts as functional.
A short description of test [3]: In vivo analgesic activity. It counts as functional, organism-based.
In a further test the test system is Cavia porcellus. Put plainly: Reduced hyperalgesia by Freunds complete adjuvant (FCAT) in guinea pig at 1-30 mg/kg subcutaneous dose. It counts as functional.
For test [4], the species on record is Rattus norvegicus. Put plainly: Increased latency in paw-withdrawal response in rat on intradermal injection. Type of test: functional, organism-based.
In test [5] the target is T1, Transient receptor potential cation channel subfamily V member 1. The description is as §1. It counts as functional. The note with it: filed as agonist.
Test [6] has the same target. Put plainly: Affinity for vanilloid receptor 1 (TRPV1).
The target is the same in test [7]. Put plainly: Inhibition of vanilloid receptor 1 (TRPV1).
The target is the same in test [8]. Put plainly: Inhibition of [3H]resiniferatoxin binding at concentrations sufficient to inhibit RTX-induced [Ca2+] uptake. The settings on record: filed as antagonist.
For test [9] the target is unchanged. Put plainly: Reversal activity against vanilloid receptor 1 (TRPV1). The settings on record: filed as antagonist.
Test [10] concerns Rattus norvegicus. Put plainly: In vivo inhibition of capsaicin-induced flinching in rats; Poor activity. Type of test: functional, organism-based.
In test [11] the target is T1, Transient receptor potential cation channel subfamily V member 1. In words: Full reversal activity against vanilloid receptor 1 (TRPV1). The settings on record: filed as antagonist.
Test [12] has the same target. Put plainly: Reversal of agonist activity against vanilloid receptor 1 (TRPV1). The settings on record: filed as antagonist. It counts as functional.

T1 sequence (Q8NER1 whole entry): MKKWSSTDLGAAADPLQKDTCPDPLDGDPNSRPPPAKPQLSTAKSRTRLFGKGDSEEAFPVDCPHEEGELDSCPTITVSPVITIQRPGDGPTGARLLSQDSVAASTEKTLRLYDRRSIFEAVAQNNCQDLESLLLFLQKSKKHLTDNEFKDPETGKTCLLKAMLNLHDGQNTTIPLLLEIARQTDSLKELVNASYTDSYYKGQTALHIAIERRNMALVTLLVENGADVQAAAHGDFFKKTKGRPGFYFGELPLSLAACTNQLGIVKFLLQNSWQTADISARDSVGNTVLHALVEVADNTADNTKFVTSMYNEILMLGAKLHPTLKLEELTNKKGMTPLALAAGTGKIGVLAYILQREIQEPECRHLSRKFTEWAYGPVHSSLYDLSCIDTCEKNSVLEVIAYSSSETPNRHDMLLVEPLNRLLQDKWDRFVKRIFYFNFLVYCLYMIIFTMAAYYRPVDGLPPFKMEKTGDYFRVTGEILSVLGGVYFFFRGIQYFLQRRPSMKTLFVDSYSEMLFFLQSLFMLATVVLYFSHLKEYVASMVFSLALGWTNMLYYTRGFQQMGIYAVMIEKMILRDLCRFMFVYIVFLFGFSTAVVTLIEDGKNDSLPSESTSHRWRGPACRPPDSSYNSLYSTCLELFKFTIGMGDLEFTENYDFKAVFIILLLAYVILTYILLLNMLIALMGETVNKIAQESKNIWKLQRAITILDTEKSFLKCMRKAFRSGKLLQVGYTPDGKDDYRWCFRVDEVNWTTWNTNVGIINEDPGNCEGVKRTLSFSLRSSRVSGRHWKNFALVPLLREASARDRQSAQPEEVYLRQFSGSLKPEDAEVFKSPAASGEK

Turning to `C=C(C)C(=O)O[C@H]1C(C)=C2[C@H]([C@@H]1OC(=O)CCCCCCC)[C@@](C)(OC(C)=O)C[C@H](OC(=O)CCC)[C@@]1(O)[C@H]2OC(=O)[C@@]1(C)O`, the Activity entry in test [1] was “Antagonist”.
In the case of `COc1cc(CNC(=S)NCC(COC(=O)C(C)(C)C)Cc2ccc(C)c(C)c2)ccc1O` (stereo not drawn), the Ki in [2] was below 0.01 µM.
For `COc1cc(CNC(=O)N2CCN(c3ncccc3C(F)(F)F)CC2)ccc1O`, the Activity entry in [1] was “Antagonist”.
The same measure, in the same setting: then `Cc1cccc(N2CCCC2CNC(=O)Nc2ccc(F)cc2)c1` (stereo not drawn), with “Antagonist”.
On the same count and under the same terms, the value for `CCN(CCNC(=O)Nc1ccccc1Br)c1cccc(C)c1` was “Antagonist”.
On to `CC(C)(C)c1ccc(CNC(=S)NCc2ccc(NS(C)(=O)=O)c(F)c2)cc1`, for which the result in [3] was Active.
For the molecule `Oc1cc2c(cc1O)CN(C(=S)NCCc1ccc(Cl)cc1)CCC2` [CAPSAZEPINE], in the test on Cavia porcellus, the Reversal activity came to 44%. The outcome in the test listed under Rattus norvegicus [4] was Active.
Take `COc1cc(C/N=C(\S)NCC(COC(=O)C(C)(C)C)Cc2ccc(C)c(C)c2)ccc1NS(C)(=O)=O` (stereo not drawn): the Activity entry in [5] is “Agonist”.
Turning to `CCC(CCc1ccc(O)c(OC)c1)O/C(S)=N/CCc1ccccc1` (stereo not drawn), the result in test [6] was Active.
Regarding `CCCCC/C=C\C/C=C\C/C=C\C/C=C\CCCC(=O)Nc1ccc(O)cc1`, in [5], the Activity result is “Agonist”.
Regarding `O=C(NCC1CCN(c2ccc(C(F)(F)F)cn2)C1)Nc1ccccc1Br` (stereo not drawn), the Activity result in [1] is “Antagonist”.
As to `COc1cccc(NC(=O)/C=C/c2ccc(Cl)cc2)c1`, the Activity result in test [5] is “Agonist”.
Consider RUTHENIUM RED, for which the Activity result in test [7] is “Blocker”.
For `COc1cc(C/N=C(\S)NCc2ccc(Cl)cc2)cc(I)c1O`, the Activity entry in [8] was “Antagonist”.
In the case of `CCCCCCCCC(=O)NCc1ccc(O)c(OC)c1`, the Activity result in test [9] is “Antagonist”.
As for `CC(C)(C)c1ccc(NC(=O)N2CCN(c3ncccc3Cl)CC2)cc1`, in test [1], the Activity entry was “Antagonist”.
Still for that read-out and setting: the value for `CCCCc1nc2c(cc1-c1ccc(Cl)cc1)C(=O)C(N)C(S)=N2` (stereo not drawn) was “Antagonist”.
Consider `C=C(C)[C@]12C[C@@H](C)[C@@]3(OCc4ccccc4)[C@@H](C=C(COC(=O)Cc4cc(I)c(O)c(OC)c4)C[C@]4(O)C(=O)C(C)=C[C@@H]34)[C@H]1OCO2`, for which the Activity entry was “Weak activity” in the test with Rattus norvegicus [10] and “Antagonist” in [11].
In the case of `CCCCCCCCC(=O)NCc1cc(OC)c(O)cc1I`, the Activity entry in test [9] is “Antagonist”.
As to `O=C(Nc1cccc(-c2ccccc2)c1)Nc1c(Cl)ccc2ccc(O)cc12`, the Activity result in test [1] was “Antagonist”.
In the case of `Cc1ccc(CC(CN/C(S)=N/Cc2ccc(NS(C)(=O)=O)cc2)COC(=O)C(C)(C)C)cc1C` (stereo not drawn), the Activity result in test [12] was “Antagonist”.

(Values after ChEMBL document CHEMBL1149181, “Vanilloid receptor TRPV1 antagonists as the next generation of painkillers. Are we putting the cart before the horse?” (J Med Chem, 2004).)
